System: human keratinocytes
Test: Inhibition of apoptosis induced by growth factor deficiency, cell count and BrdU ELISA of cytoplasmic DNA fragments
Assay type: cell-based
Conditions: 30 ng/ml, percent of control
Experimental: The ability of the plant extracts of Cassia alata to prevent apoptosis induced by a deficiency of growth factors in human skin cells was investigated. The test was conducted in vitro on human fibroblasts and human keratinocytes. The human cells were cultivated in a nutrient medium (DMEM=Dulbecco […] from Life Technologie S.a.r.l.) containing 10% of foetal calf serum (from Dutcher). Bromodeoxyuridine (BrdU) was added to this nutrient medium. It was incorporated in the DNA and was subsequently used to detect the DNA fragments in the cytoplasm. After two days' incubation, the nutrient medium was replaced by nutrient medium (DMEM) with no foetal calf serum. The active substance to be tested was added. […] For comparison, a cell sample was incubated without any active substance to be tested (quantities and concentrations shown in Tables 5 and 6).
After incubation for one or two days at 37° C., the cells were recovered by trypsination using the Dunnebacke and Zitcer method described in Cell and Tissue Culture, Ed.: J. Paul, Churchill Livingstone, 1975, p. […] After the trypsin treatment, the cells were centrifuged and counted. The BrdU content in DNA fragments from the cytoplasm was then determined by the ELISA Test (ELISA Kit from Roche). […]

**Q.** How did the Cell counting turn out when “EGF: known growth factor Epidermal Growth Factor, polypeptide of 53 amino acids” was run?
**A.** Its Cell counting is 121%.

**Q.** And the “Content of DNA fragments in the cytoplasm” value?
**A.** The value was 32%.

From patent publication US8535731B2, “Use of extracts of the Cassia alata plant” (BASF Beauty Care Solutions France S.A.S., priority 2000, dated 2013)
